Experimental data: PMC3743865, “The FLT3 Inhibitor Quizartinib Inhibits ABCG2 at Pharmacologically Relevant Concentrations, with Implications for Both Chemosensitization and Adverse Drug Interactions” (PLoS ONE, 2013)

Tests used:
[1] = molecular target: ABCB1 (Homo sapiens, UniProt P08183); experiment: biochemical
[2] = molecular target: T1, ABCG2 (Homo sapiens, UniProt Q9UNQ0); experiment: biochemical
T1 sequence (Q9UNQ0 1-655): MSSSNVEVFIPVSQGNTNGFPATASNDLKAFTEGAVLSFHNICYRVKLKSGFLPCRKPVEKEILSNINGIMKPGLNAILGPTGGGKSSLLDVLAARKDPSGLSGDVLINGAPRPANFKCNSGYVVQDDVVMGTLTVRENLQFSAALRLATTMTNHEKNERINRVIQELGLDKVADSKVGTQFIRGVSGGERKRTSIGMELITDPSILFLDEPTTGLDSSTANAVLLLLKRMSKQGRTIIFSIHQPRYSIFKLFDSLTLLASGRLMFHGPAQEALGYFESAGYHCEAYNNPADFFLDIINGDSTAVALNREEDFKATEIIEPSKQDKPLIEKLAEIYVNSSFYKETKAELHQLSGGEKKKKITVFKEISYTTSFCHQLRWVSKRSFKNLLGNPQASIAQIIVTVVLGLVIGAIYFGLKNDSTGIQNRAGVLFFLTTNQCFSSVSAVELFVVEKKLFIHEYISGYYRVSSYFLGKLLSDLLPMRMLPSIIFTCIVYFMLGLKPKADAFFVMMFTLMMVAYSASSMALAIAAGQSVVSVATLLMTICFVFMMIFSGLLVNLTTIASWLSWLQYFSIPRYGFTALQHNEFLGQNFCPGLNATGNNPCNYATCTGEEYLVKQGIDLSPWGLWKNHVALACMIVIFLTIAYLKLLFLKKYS

ABCB1, sequence (P08183 whole entry): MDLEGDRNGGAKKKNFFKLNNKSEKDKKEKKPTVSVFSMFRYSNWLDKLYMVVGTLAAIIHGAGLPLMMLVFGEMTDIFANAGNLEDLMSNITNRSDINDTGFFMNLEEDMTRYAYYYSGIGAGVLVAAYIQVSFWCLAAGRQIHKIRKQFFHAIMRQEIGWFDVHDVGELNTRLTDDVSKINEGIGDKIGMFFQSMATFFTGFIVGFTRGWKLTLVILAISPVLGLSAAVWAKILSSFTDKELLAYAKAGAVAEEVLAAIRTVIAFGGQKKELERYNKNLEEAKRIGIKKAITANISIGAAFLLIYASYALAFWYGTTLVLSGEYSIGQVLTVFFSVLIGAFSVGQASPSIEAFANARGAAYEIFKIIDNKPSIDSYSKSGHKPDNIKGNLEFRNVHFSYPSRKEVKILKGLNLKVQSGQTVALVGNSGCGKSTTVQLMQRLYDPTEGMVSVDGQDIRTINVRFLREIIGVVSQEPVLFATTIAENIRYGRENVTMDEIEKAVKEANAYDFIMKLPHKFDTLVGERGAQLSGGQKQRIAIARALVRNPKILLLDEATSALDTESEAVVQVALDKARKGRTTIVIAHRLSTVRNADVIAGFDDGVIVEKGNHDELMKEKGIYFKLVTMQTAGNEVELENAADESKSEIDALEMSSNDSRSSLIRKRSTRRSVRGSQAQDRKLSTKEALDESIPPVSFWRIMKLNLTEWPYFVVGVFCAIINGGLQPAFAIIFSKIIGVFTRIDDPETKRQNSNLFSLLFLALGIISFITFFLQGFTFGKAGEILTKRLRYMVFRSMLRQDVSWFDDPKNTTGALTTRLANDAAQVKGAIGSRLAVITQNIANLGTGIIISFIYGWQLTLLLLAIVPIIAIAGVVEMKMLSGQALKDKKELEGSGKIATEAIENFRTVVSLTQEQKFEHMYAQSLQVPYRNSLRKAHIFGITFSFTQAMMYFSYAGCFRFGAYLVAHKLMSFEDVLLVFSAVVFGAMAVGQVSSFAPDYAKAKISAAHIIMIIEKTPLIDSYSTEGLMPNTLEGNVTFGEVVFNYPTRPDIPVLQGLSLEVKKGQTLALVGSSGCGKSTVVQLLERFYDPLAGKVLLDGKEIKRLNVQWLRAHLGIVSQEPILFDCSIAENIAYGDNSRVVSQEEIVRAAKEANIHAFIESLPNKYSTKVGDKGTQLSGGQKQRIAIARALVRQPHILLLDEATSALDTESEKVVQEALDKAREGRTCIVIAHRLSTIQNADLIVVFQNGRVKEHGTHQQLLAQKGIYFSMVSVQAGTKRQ

- IC50 [1]: 3300 nM
- IC50 [2]: 70 nM
Structure (SMILES): CC(C)(C)c1cc(NC(=O)Nc2ccc(-c3cn4c(n3)sc3cc(OCCN5CCOCC5)ccc34)cc2)no1 [quizartinib]
